Results on 17 compounds are retold here after PubChem BioAssay AID588778 (Southern Research Institute, 2011).

Converted amounts (≈) assume the structure as drawn. The source made the active and inactive calls. No rule for the calls is given here.

For the assay, the system named is Vibrio cholerae motility, OD read-out. Kind of assay: Vibrio cholerae motility inhibitors, OD read-out (AID 588778).
As for `Cc1ccc(C)c(Nc2nc(NCCO)c3ccccc3n2)c1`, the IC50 is 6.87 µg/mL (≈ 22.3 µM).

Regarding `COC(=O)c1sc2cc(NC(=S)NC(C)c3ccc4c(c3)OCO4)ccc2c1Cl` (configuration not stated), the IC50 is 46.8 µg/mL (inactive) (≈ 104 µM).

As for `NC(=O)NNc1c2ccccc2nc2ccccc12`, the IC50 was 13 µg/mL (inactive) (≈ 51.5 µM).

Take `COC(=O)NC12CC3CC(CC(C3)C1)C2`: the IC50 was 16.4 µg/mL (inactive) (≈ 78.4 µM).

In the case of `CC[n+]1c(/C=C/c2ccc(-c3ccc([N+](=O)[O-])cc3)o2)ccc2ccccc21`, the IC50 was 15.3 µg/mL (inactive).

For the compound `Nc1nc(-c2ccccc2)cc(N2CCCCC2)n1`, the IC50 was 14.3 µg/mL (inactive) (≈ 56.2 µM).

Take `FC(F)(F)c1ccccc1-n1c(-c2cccnc2)n[nH]c1=S`: the IC50 was 6.15 µg/mL (inactive) (≈ 19.1 µM).

For the compound `O=[N+]([O-])c1nn(Cc2c(F)cccc2Cl)cc1Cl`, the IC50 was 1.4 µg/mL (≈ 4.83 µM).

For the compound `O=C(Oc1ccc(Cl)c2cccnc12)c1cccs1`, the IC50 is 12.8 µg/mL (inactive) (≈ 44.2 µM).

For the compound `O=[N+]([O-])c1nn(Cc2ccc(F)cc2)cc1Br`, the half-maximal inhibitory concentration (IC50) was 4.1 µg/mL (≈ 13.7 µM).

`CC(=O)NC(=S)NNC(=O)c1ccc(-c2ccccc2)cc1`: the IC50 is 1.96 µg/mL (inactive) (≈ 6.25 µM).

As for `O=C(N/C(=C/c1cccs1)c1nc2ccccc2[nH]1)c1cccs1`, the IC50 is 16.8 µg/mL (inactive) (≈ 47.8 µM).

Consider `Cc1ccc(OCCn2ccnc2)c(Cl)c1`, for which the IC50 is 25.9 µg/mL (inactive) (≈ 109 µM).

On to `Nc1nc(NC(=O)c2ccco2)nn1-c1ccccc1`, for which the IC50 is 11.3 µg/mL (≈ 42 µM).

On to `C=CCNC(=S)Nc1ccc(Cl)c(Cl)c1`, for which the IC50 is 26.4 µg/mL (inactive) (≈ 101 µM).

For the compound `O=C1CC(Sc2ccccc2C(=O)O)C(=O)N1` (configuration not stated), the IC50 was 8.99 µg/mL (inactive) (≈ 35.8 µM).

Take `CC(NC(=O)c1ccc([N+](=O)[O-])o1)C12CC3CC(CC(C3)C1)C2` (configuration not stated): the IC50 is 3.3 µg/mL (inactive) (≈ 10.4 µM).
